The assay addresses isomerase (Mus musculus (Mouse), UniProt Q91ZQ5). The assay is described as follows: In vivo murine isomerase assay (recovery of 11-cis-retinal after photobleaching). The following applies: for inhibition at 5 mg/kg / inhibition at 10 mg/kg / inhibition at 1 mg/kg / ED50: mouse; for inhibition at 5 mg/kg / inhibition at 10 mg/kg / inhibition at 1 mg/kg: po, negative numbers leveled to 0%; for inhibition at 5 mg/kg: 5 mg/kg oral gavage; for inhibition at 10 mg/kg: 10 mg/kg oral gavage; for inhibition at 1 mg/kg: 1 mg/Kg oral gavage; for ED50: estimated, oral gavage, read-out: ED50 (dose of compound that gives 50% inhibition of 11-cis retinal (oxime) recovery). Details: species or system CD-1 (albino) male mice. Here is the method:
The capability of styrenyl derivatives to inhibit isomerase is determined by an in vivo murine isomerase assay. Brief exposure of the eye to intense light (“photobleaching” of the visual pigment or simply “bleaching”) is known to photo-isomerize almost all 11-cis-retinal in the retina. The recovery of 11-cis-retinal after bleaching can be used to estimate the activity of isomerase in vivo. Procedures were performed essentially as described by Golczak et al., Proc. Natl. Acad. Sci. USA 102:8162-67 (2005). See also Deigner et al., Science, 244: 968-71 (1989); Gollapalli et al., Biochim Biophys Acta. 1651: 93-101 (2003); Parish, et al., Proc. Natl. Acad. Sci. USA, 14609-13 (1998); Radu, et al., Proc Natl Acad Sci USA 101: 5928-33 (2004). […] Mice were gavaged with styrenyl derivative compounds, Compound 1 or Compound 25. Compound B was included as a positive control, and Compound A with low activity was also included. After 1-72 hours in the dark, the mice were exposed to photobleaching of 3,000 lux of white light for 10 minutes. The mice were allowed to recover 2 hours in the dark. The animals were then sacrificed by carbon dioxide inhalation. Retinoids were extracted from the eye and the regeneration of 11-cis-retinal was assessed at various time intervals. All steps were performed in darkness with minimal redlight illumination (low light darkroom lights and […] flashlights for spot illumination as needed) (see, e.g., Maeda et al., J. Neurochem 85:944-956, 2003; Van Hooser et al., J Biol Chem 277:19173-82, 2002). After the mice were sacrificed, the eyes were immediately removed and placed in liquid nitrogen. The eyes were then homogenized in a glass/glass homogenizer (Kontes Glass Co., homogenizer & pestle 21) containing 1 ml retinoid analysis buffer (50 mM MOPS, 10 mM NH2OH, 50% EtOH, pH 7.0 (stock buffer was stored in absence of ethanol)). The eyes were homogenized until no visible tissue remained (approximately 3 minutes). The samples were incubated 20 minutes at room temperature (including homogenizing) and then placed on ice. One ml cold EtOH was added to the homogenate to rinse the pestle, and the homogenate mixture was transferred to 7 ml glass screwtop tubes on ice. The homogenizer was rinsed with 7 ml hexane, which was added to the 7 ml tubes on ice. The homogenate was mixed by vortexing at high speed for 1 minute. The phases were separated by centrifugation (5 minutes at 4000 rpm, 4° C.). The upper phase was collected and transferred to a clean glass test tube, taking care to avoid disturbing the interface by leaving approximately 0.2 ml of upper phase in the tube. The tubes with the collected upper phase were placed in a heating block at 25° C. and dried under a stream of Argon ( 30 minutes). The lower phase was again extracted by adding 4 ml hexane, vortexing, and separating the phases by centrifugation. The upper phase was collected as described above and pooled into the drying tubes. The dried samples were solubilized in 300 μl Hexane (Fisher Optima grade) and vortexed lightly. The samples were transferred to clean 300 μl glass inserts in HPLC vials using glass pipette and the vials were crimped shut tightly. […] Part #235341). […] The area under the curve for 11-cis retinal oxime was calculated by Agilent Chemstation software and was recorded manually. Data processing was performed using Prizm software. Positive control mice (no compound administered) were sacrificed fully dark-adapted and the eye retinoids analyzed. Light (bleached) control mice (no compound administered) were sacrificed and retinoids isolated and analyzed immediately after light treatment.

SMILES strings stand for the structures.

Sequence of isomerase (Q91ZQ5 whole entry): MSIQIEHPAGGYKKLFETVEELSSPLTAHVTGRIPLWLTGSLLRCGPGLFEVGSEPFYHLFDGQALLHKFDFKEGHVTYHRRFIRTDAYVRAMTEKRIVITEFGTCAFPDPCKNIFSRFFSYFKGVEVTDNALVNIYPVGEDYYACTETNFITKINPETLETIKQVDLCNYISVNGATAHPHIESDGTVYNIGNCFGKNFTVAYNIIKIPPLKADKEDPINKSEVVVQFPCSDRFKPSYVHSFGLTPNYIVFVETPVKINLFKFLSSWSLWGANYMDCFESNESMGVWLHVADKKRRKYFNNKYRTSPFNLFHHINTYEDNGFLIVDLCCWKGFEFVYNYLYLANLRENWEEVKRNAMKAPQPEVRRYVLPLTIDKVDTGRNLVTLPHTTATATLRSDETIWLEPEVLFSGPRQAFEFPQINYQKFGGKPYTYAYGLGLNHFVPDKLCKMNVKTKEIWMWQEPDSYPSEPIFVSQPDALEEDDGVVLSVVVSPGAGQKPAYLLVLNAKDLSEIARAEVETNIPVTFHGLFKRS

As to `CC(C)(O)/C=C/c1cccc(CCCN)c1` [Example 79, (E)-4-(3-(3-aminopropyl)phenyl)-2-methylbut-3-en-2-ol], the inhibition at 5 mg/kg by setting is: (4 h) 24%; (24 h) 0%.
`CC1=C(/C=C/c2cccc(C#CCN)c2)C(C)(C)CCC1` [Example 68, (E)-3-(3-(2-(2,6,6-trimethylcyclohex-1-enyl)vinyl)phenyl)prop-2-yn-1-amine] came in with an inhibition at 10 mg/kg (4 h) of 75%.
The compound `CCC/C=C/c1cccc(CCCN)c1` [Example 23, (E)-3-(3-(pent-1-enyl)phenyl)propan-1-amine] had an inhibition at 10 mg/kg (4 h) of 0%.
Consider `NCCCc1cccc(/C=C/c2c(C(F)(F)F)cccc2C(F)(F)F)c1` [Example 49, (E)-3-(3-(2,6-bis(trifluoromethyl)styryl)phenyl)propan-1-amine], for which, where the note is “4 h”, at 1 mg/kg the inhibition was 10% and the inhibition at 5 mg/kg was 60%. For the same compound, for the setting “24 h”, the inhibition at 1 mg/kg worked out at 0% and testing at 5 mg/kg gave an inhibition of 84%.
Take `CC1=C(/C=C/c2cccc(CCCN)c2)C(C)(C)CCC1` [Example 21, (E)-3-(3-(2-(2,6,6-trimethylcyclohex-1-enyl)vinyl)phenyl)propan-1-amine]: the inhibition at 10 mg/kg (4 h) stood at 80%.
Regarding `NC[C@H](O)Cc1cccc(/C=C/c2c(Cl)cccc2Cl)c1` [Example 74, (R,E)-1-amino-3-(3-(2,6-dichlorostyryl)phenyl)propan-2-ol], the inhibition at 1 mg/kg (2 h) came to 19%, the inhibition at 1 mg/kg (6 h) amounted to 40% and the inhibition at 1 mg/kg (24 h) came to 9%. For the same compound, testing at 5 mg/kg (2 h) gave an inhibition of 83%, the inhibition at 5 mg/kg (6 h) was found to be 91% and 5 mg/kg produced 56% inhibition (24 h).
On to `CC1=C(/C=C/c2cccc(C(=O)CCN)c2)C(C)(C)CCC1` [Example 56, (E)-3-amino-1-(3-(2-(2,6,6-trimethylcyclohex-1-enyl)vinyl)phenyl)propan-1-one], for which 1 mg/kg produced 26% inhibition (2 h), the inhibition at 1 mg/kg (6 h) was determined as 75% and at 1 mg/kg the inhibition (24 h) was 77%.
Compound `COc1ccccc1C=Cc1cccc(CCCN)c1` (mixture of isomers) [Example 41] showed an inhibition at 10 mg/kg (4 h) of 76%.
Consider `CC1=C(/C=C/c2cccc(C(O)C(C)CN)c2)C(C)(C)CCC1` (stereo not drawn) [Example 59, (E)-(syn/anti)-3-amino-2-methyl-1-(3-(2-(2,6,6-trimethylcyclohex-1-enyl)vinyl)phenyl)propan-1-ol], for which testing at 1 mg/kg (4 h) gave an inhibition of 0% and the inhibition at 1 mg/kg (6 h) was 1%. Also, 5 mg/kg produced 21% inhibition (4 h) and testing at 5 mg/kg (24 h) gave an inhibition of 7%.
Where the note is “4 h”, `Cc1cc(C)cc(C=Cc2cccc(CCCN)c2)c1` (mixture of isomers) [Example 40, (E/Z)-4-(3-(3,5-dimethylstyryl)phenyl)propan-1-amine] returned an inhibition at 10 mg/kg of 2%.
Same read-out and setting: then `CC1=C(/C=C/c2cccc(CC(C)CN)c2)C(C)(C)CCC1` (centres unmarked) [Example 26, (E)-2-methyl-3-(3-(2-(2,6,6-trimethylcyclohex-1-enyl)vinyl)phenyl)propan-1-amine], with 80%.
On the same count and under the same terms, then `NCCCc1cccc(/C=C/C2CCCCC2)c1` [Example 22, (E)-3-(3-(2-cyclohexylvinyl)phenyl)propan-1-amine], with 0%.
For `CC1=C(/C=C/c2cccc(C(N)CCN)c2)C(C)(C)CCC1` (centres unmarked) [Example 61, (E)-1-(3-(2-(2,6,6-trimethylcyclohex-1-enyl)vinyl)phenyl)propane-1,3-diamine], the inhibition at 1 mg/kg is 0% (4 h) and 0% (6 h). In addition, the inhibition at 5 mg/kg is 12% (4 h) and 0% (24 h).
As for `Cc1cccc(C)c1/C=C/c1cccc(CCCN)c1` [Example 1, (E)-3-(3-(2,6-dimethylstyryl)phenyl)propan-1-amine], the “time of maximum inhibitory effect after gavage” value (isomerase inhibitory activity over time, mice, FIG. 1) is approximately 6 h. Moreover, the inhibition at 1 mg/kg reads like this: (2 h) 0%; (6 h) 0%; (24 h) 0%. Besides, the inhibition at 5 mg/kg turned out to be 57% (4 h) and 58% (24 h). This compound also returned an inhibition at 10 mg/kg (4 h) of 80%. Also, under “mice”, the ED50 was 4.3 mg/kg.
As to `CCCCC/C=C/c1cccc(CCCN)c1` [Example 24, (E)-3-(3-(hept-1-enyl)phenyl)propan-1-amine], testing at 10 mg/kg (4 h) gave an inhibition of 16%.
On to `NCCCc1cccc(/C=C/c2c(Cl)cccc2Cl)c1` [Example 43, (E)-3-(3-(2,6-dichlorostyryl)phenyl)propan-1-amine], for which the inhibition at 1 mg/kg reads like this: (2 h) 0%; (6 h) 7%; (24 h) 16%. Besides, the inhibition at 5 mg/kg was 79% (4 h) and 54% (24 h). The inhibition at 10 mg/kg (4 h) worked out at 94%.
In the case of `NC[C@@H](O)Cc1cccc(/C=C/c2c(Cl)cccc2Cl)c1` [Example 75, (S,E)-1-amino-3-(3-(2,6-dichlorostyryl)phenyl)propan-2-ol], the inhibition at 1 mg/kg amounted to 19% (2 h), 20% (6 h) and 13% (24 h). Also, the inhibition at 5 mg/kg by setting is: (2 h) 81%; (6 h) 90%; (24 h) 85%.
For the setting “4 h”, `CC1=C(/C=C/c2cccc(C(C)CCN)c2)C(C)(C)CCC1` (centres unmarked) [Example 27, (E)-3-(3-(2-(2,6,6-trimethylcyclohex-1-enyl)vinyl)phenyl)butan-1-amine] gave an inhibition at 10 mg/kg of 11%.
In turn, `CC1=C(/C=C/c2cccc(C(F)CCN)c2)C(C)(C)CCC1` (centres unmarked) [Example 55, (E)-3-fluoro-3-(3-(2-(2,6,6-trimethylcyclohex-1-enyl)vinyl)phenyl)propan-1-amine] had an inhibition at 1 mg/kg (2 h) of 0%. For the same compound, the inhibition at 5 mg/kg was determined as 75% (4 h) and 89% (24 h).
As for `CC1=C(/C=C/c2cccc(C(O)CCN)c2)C(C)(C)CCC1` (centres unmarked) [Compound 25, (E)-3-amino-1-(3-(2-(2,6,6-trimethylcyclohex-1-enyl)vinyl)phenyl)propan-1-ol], the inhibition at 1 mg/kg reads like this: (4 h) 89%; (24 h) 96%. The compound further had an inhibition at 10 mg/kg (4 h) of 100%. For the same compound, the median effective dose (ED50) (mice) is 0.44 mg/kg.
With `NCCC(O)c1cccc(/C=C/C2(O)CCCCC2)c1` (centres unmarked) [Example 111, (E)-1-(3-(3-amino-1-hydroxypropyl)styryl)cyclohexanol], the inhibition at 5 mg/kg (4 h) was 90% and the inhibition at 5 mg/kg (24 h) was determined as 0%.
For the compound `CCc1cccc(C)c1C=Cc1cccc(CCCN)c1` (mixture of isomers) [Example 32, (E/Z)-3-(3-(2-ethyl-6-methylstyryl)phenyl)propan-1-amine], for the setting “4 h”, the inhibition at 10 mg/kg came out at 52%.
Take `CCCC(O)(/C=C/c1cccc(CCCN)c1)CCC` [Example 83, (E)-4-(3-(3-aminopropyl)styryl)heptan-4-ol]: where the note is “4 h”, the inhibition at 1 mg/kg came out at 55% and the inhibition at 5 mg/kg is 97%. Where the note is “24 h”, 1 mg/kg produced 0% inhibition and the inhibition at 5 mg/kg was 3%.
Turning to `CC1=C(/C=C/c2cccc(OCCN)c2)C(C)(C)CCC1` [Example 31, (E)-2-(3-(2-(2,6,6-trimethylcyclohex-1-enyl)vinyl)phenoxy)ethanamine], the inhibition at 1 mg/kg reads like this: (2 h) 0%; (6 h) 2%; (24 h) 0%. In addition, the inhibition at 5 mg/kg is 53% (4 h) and 46% (24 h).
